Where two headings read alike, the source gives them in different places.
Legend:
P. aeruginosa PA01 = assay: IC50 assay (OD595, 24 h) against PA01; format: cell-based; conditions: Pseudomonas aeruginosa
Protocol: (§1) P. aeruginosa PA01, and PA14 were gifts from Prof. George O'Toole (Dartmouth Medical School). Bacterial cultures were grown from freezer stocks overnight (16-24 hr) with shaking at 37° C. in Tryptic Soy Broth (TSB) media (10 mL). Growth curves were obtained for PA01 and PA14 to determine the OD of each strain in exponential growth; OD readings at 595 nm were taken every 10 minutes for 6 hours in a plate reader at 37° C. with shaking and repeated six times. (see FIGS. 6A and 6B) Compounds were serially diluted in sterile DI water from a stock solution (1 mM in 10% DMSO/90% H2O) to yield twenty-four test concentrations. Overnight cultures were diluted 1:100 in 5 mL fresh media and grown with shaking at 37° C. to an OD of 0.32 (see growth curves). Bacteria were diluted to a concentration of 0.004 using the following equation: (x μL O/N)(OD reading)=(0.004)(volume needed) and 100 μL was inoculated into each well of a flat-bottom 96-well plate (Corning 3370) containing 100 μL of compound solution. Plates were incubated statically at 37° C. for 24 hours, upon which time the OD at 595 nm was measured using a plate reader. IC50 values were calculated by fitting the OD readings vs. concentration with a 4 parameter logistic model. Controls were prepared by serially diluting a 10% DMSO/90% H2O the same as the compound stock solution. Compounds were tested in triplicate from separate O/N cultures and results averaged.

P. aeruginosa PA14 = assay: IC50 assay (OD595, 24 h) against PA14; format: cell-based, Pseudomonas aeruginosa; conditions: Pseudomonas aeruginosa
Protocol: (§2) P. aeruginosa PA01, and PA14 were gifts from Prof. George O'Toole (Dartmouth Medical School). Bacterial cultures were grown from freezer stocks overnight (16-24 hr) with shaking at 37° C. in Tryptic Soy Broth (TSB) media (10 mL). Growth curves were obtained for PA01 and PA14 to determine the OD of each strain in exponential growth; OD readings at 595 nm were taken every 10 minutes for 6 hours in a plate reader at 37° C. with shaking and repeated six times. (see FIGS. 6A and 6B)
as §1, with “Compounds” for “P. aeruginosa PA01, and PA14 were gifts from Prof. George O'Toole (Dartmouth Medical School). Bacterial cultures were grown from freezer stocks overnight (16-24 hr) with shaking at 37° C. in Tryptic Soy Broth (TSB) media (10 mL). Growth curves were obtained for PA01 and PA14 to determine the OD of each strain in exponential growth; OD readings at 595 nm were taken every 10 minutes for 6 hours in a plate reader at 37° C. with shaking and repeated six times. (see FIGS. 6A and 6B) Compounds”
Compounds were serially diluted in sterile DI water from a stock solution (10% DMSO/H2O) yielding 24 test concentrations. Bacteria were diluted to a final concentration of 0.004 from regrown overnight culture according to the following equation: (xμL bacterial culture)(OD reading)=(0.004)(total volume needed) and 100 μL was inoculated into each well of a flat-bottom 96-well plate (Corning 3370) containing 100 μL of compound solution. Plates were incubated statically at 37° C. for 24 hours upon which time OD at 595 nm was measured using a plate reader (Spectra Max 190). IC50 values were calculated using OD values and concentrations with a 4-parameter logistic model. Control experiments used a 10% DMSO/H2O stock serially diluted to the same 24 concentrations. Compounds were tested in triplicate from three independent overnight cultures.

CAS assay (CAS agar) = format: physicochemical; conditions: at concentrations ranging from 6-100 μM; reduced affinity compared to EDTA
Protocol: CAS agar was prepared as described previously (Cordero, et al., PNAS, 2012, 109, 49, 29059). 10 μL of solution at given concentration were dosed onto plates and imaged after 24 hours. Stock solutions were made in 10% DMSO/H2O.

PaPiuA = assay: Isothermal microcalorimetry titration; format: binding, Pseudomonas aeruginosa; conditions: 25° C.
Protocol: Titrations were performed using 5 μl injections of 164 μM (using ε280=6 714 1 mol-1 cm-1 Li et al. Chemistry and Biology 2011) of the ligand in 17 μM of purified PaPiuA (Moynie et al. Antimicrobial Agents and Chemotherapy 2017) in the same buffer (50 mM sodium phosphate pH 7.5, 50 mM NaCl, 0.8% OctylPOE). The heats of dilution measured from injection of the ligands into the buffer were subtracted from the experimental data and titration curves were fitted to a single site binding using Origin software.

[1] = system: P. aeruginosa (PA14, PA01); assay: Zone of inhibition / growth in defined media; format: cell-based, Pseudomonas aeruginosa
Protocol: (§3) Bacterial strains (PA14, PAO1, KT2440, and RW10S1) were grown at 37° C. in TSB medium or on agar plates.
(§4) 100 μL overnight culture was added to TSB or M9 agar plates and bacterial lawns were ‘created’ using Roll & Grow Plating Beads. Compound stock solution 20 μL of a 250 μM solution, 10 μL of a 10 mg/mL gentamicin solution, and 20 μL of a 250 μM DMSO control (stock=10% DMSO/H2O) was absorbed into discs and allowed to dry. Discs were placed on the plates and incubated at 37° C. for 24 hours. Assay was run in triplicate from separate overnight cultures.

[2] = system: P. putida (PP KT2440, PP RW10S); assay: Zone of inhibition / growth in defined media; format: cell-based, Pseudomonas putida
Protocol: as §3, §4

[3] = system: P. aeruginosa strains PAO1 and PA14; conditions: cited from earlier work
[4] = Kaduskar et al., 2016; cited from earlier work
Gram-positive bacteria = conditions: Li et al., 2011; cited from earlier work
[5] = system: pyoverdine production in P. putida KT2440; conditions: cited from earlier work
[6] = system: P. aeruginosa strains PAO1 and PA14; assay: Inhibitory activity against P. aeruginosa, strain not separated in text; format: cell-based, Pseudomonas aeruginosa; conditions: compared with promysalin
Protocol: as §2
as §1, with “Compounds” for “P. aeruginosa PA01, and PA14 were gifts from Prof. George O'Toole (Dartmouth Medical School). Bacterial cultures were grown from freezer stocks overnight (16-24 hr) with shaking at 37° C. in Tryptic Soy Broth (TSB) media (10 mL). Growth curves were obtained for PA01 and PA14 to determine the OD of each strain in exponential growth; OD readings at 595 nm were taken every 10 minutes for 6 hours in a plate reader at 37° C. with shaking and repeated six times. (see FIGS. 6A and 6B) Compounds”
With a library of sixteen analogs in hand, all of the compounds were evaluated for inhibitory activity against P. aeruginosa strains PAO1 and PA14. […] The inhibition data supported our initial hypothesis that the conformation of promysalin is exquisitely linked to its inhibition of PA. Of our modifications to the proline structure, fluorination (9)—being the smallest steric perturbation, was the only compound with equipotency to that of promysalin.

[7] = average of EXPT 1-3, read-out: IC50 PA01 AVG
[8] = averages of three independent experiments, read-out: IC50 PA01
[9] = single trial 1, read-out: IC50 PA01 EXPT 1
[10] = single trial 2, read-out: IC50 PA01 EXPT 2
[11] = single trial 3, read-out: IC50 PA01 EXPT 3
[12] = average of EXPT 1-3, read-out: IC50 PA14 AVG
[13] = averages of three independent experiments, read-out: IC50 PA14
[14] = single trial 1, read-out: IC50 PA14 EXPT 1
[15] = single trial 2, read-out: IC50 PA14 EXPT 2
[16] = single trial 3, read-out: IC50 PA14 EXPT 3

IC50 (P. aeruginosa PA01; [7]) [µM] | IC50 (P. aeruginosa PA01; [8]) [µM] | IC50 (P. aeruginosa PA01; [9]) [µM] | IC50 (P. aeruginosa PA01; [10]) [µM] | IC50 (P. aeruginosa PA01; [11]) [µM] | IC50 (P. aeruginosa PA14; [12]) [µM] | IC50 (P. aeruginosa PA14; [13]) [µM] | IC50 (P. aeruginosa PA14; [14]) [µM] | IC50 (P. aeruginosa PA14; [15]) [µM] | IC50 (P. aeruginosa PA14; [16]) [µM] | SMILES | inhibitory activity against P. aeruginosa, in words (SAR) [6] | also measured
56.7 | 57 | 59.3 | 55.4 | 55.5 | 6.74 | 6.7 | 6.98 | 5.86 | 7.39 | CCCCCC[C@H](CCCCC[C@@H](O)C(N)=O)OC(=O)[C@@H]1CC=CN1C(=O)c1ccccc1OC [compound 11, (1R,7R)-1-carbamoyl-1-hydroxytridecan-7-yl (2S)-1-(2-methoxybenzoyl)-2,3-dihydro-1H-pyrrole-2-carboxylate] | an order of magnitude less potency | 
5.85 | 5.8 | 4.78 | 5.64 | 7.12 | 0.035 | 0.035 | 0.02 | 0.09 |  | CCCCCC[C@H](CCCCCCC(N)=O)OC(=O)[C@@H]1CC=CN1C(=O)c1ccccc1O [compound 18, (R)-14-amino-14-oxotetradecan-7-yl (S)-1-(2-hydroxybenzoyl)-2,3-dihydro-1H-pyrrole-2-carboxylate] | fully retained | 
38.3 | 38 | 29.2 | 49.3 | 47.6 | 11.2 | 11 | 12.8 | 5.72 | 15 | CCCCCC[C@H](CCCCC[C@@H](OC)C(N)=O)OC(=O)[C@@H]1CC=CN1C(=O)c1ccccc1O [compound 19, (7R,13R)-14-amino-13-methoxy-14-oxotetradecan-7-yl (S)-1-(2-hydroxybenzoyl)-2,3-dihydro-1H-pyrrole-2-carboxylate] | decrease in potency | 

The next lines start with the molecule.

SMILES | IC50 (P. aeruginosa PA01; [7]) [µM] | IC50 (P. aeruginosa PA01; [8]) [µM] | IC50 (P. aeruginosa PA01; [9]) [µM] | IC50 (P. aeruginosa PA01; [10]) [µM] | IC50 (P. aeruginosa PA01; [11]) [µM] | IC50 (P. aeruginosa PA14; [12]) [µM] | IC50 (P. aeruginosa PA14; [13]) [µM] | IC50 (P. aeruginosa PA14; [14]) [µM] | IC50 (P. aeruginosa PA14; [15]) [µM] | IC50 (P. aeruginosa PA14; [16]) [µM] | inhibitory activity against P. aeruginosa, in words (SAR) [6] | also measured
CCCCCC[C@H](CCCCC[C@@H](O)C(N)=O)OC(=O)[C@@H]1CC=CN1C(=O)c1ccccc1O [1 (2R,8R), promysalin] | 4.12 | 4.1 | 4.44 | 4.37 | 3.54 | 0.067 | 0.067 | 0.1 | 0.02 | 0.08 |  | IC50 (P. aeruginosa PA14; preliminary screening for probe design, read-out: IC50 in PA14): 0.063 µM; Fe^3+ chelation on CAS agar (CAS assay (CAS agar)): positive; binding to PiuA (isothermal microcalorimetry) (PaPiuA): no appreciable interaction; activity in TSB and glucose+Fe media [1]: active; zone of inhibition ([2]; M9, succinate as sole carbon source, iron-limiting, both PP strains including producing organism): clear zone of inhibition; activity in TSB and glucose+Fe media ([2]; P. putida): not P. putida; activity against PA (literature) [3]: nM concentrations; stability under mildly acidic conditions [4]: instability; susceptibility of Gram-positive bacteria (Gram-positive bacteria): no susceptibility; production of pyoverdine in P. putida KT2440 [5]: inhibits
CCCCCC[C@H](CCCCC[C@@H](O)C(N)=O)OC(=O)[C@@H]1CC(C)=CN1C(=O)c1ccccc1O [compound 10, (7R,13R)-14-amino-13-hydroxy-14-oxotetradecan-7-yl (S)-1-(2-hydroxybenzoyl)-4-methyl-2,3-dihydro-1H-pyrrole-2-carboxylate] | 31.9 | 32 | 32.3 | 32.5 | 31.1 | 11.4 | 12 | 10.8 | 11.2 | 12.2 | slightly tolerated | 
CCCCCC[C@H](C/C=C/CC[C@@H](O)C(N)=O)OC(=O)[C@@H]1CC=CN1C(=O)c1ccccc1O [compound 21, (7R,13R,E)-14-amino-13-hydroxy-14-oxotetradec-9-en-7-yl (S)-1-(2-hydroxybenzoyl)-2,3-dihydro-1H-pyrrole-2-carboxylate] | 8.34 | 8.3 | 10.1 | 8.07 | 6.81 | 0.067 | 0.067 | 0.12 | 0.05 | 0.03 | equipotent | 
